Assay results published in US6391595B1, “Transferase and amylase, process for producing the enzymes, use thereof, and gene coding for the same” (Kirin Beer Kabushiki Kaisha, priority 1994, dated 2002).
Read-outs that look alike come from different tables or passages of the source.

Columns and labels:
[1] = test system: debranching enzyme derived from the Sulfolobus solfataricus strain KM1; experiment: Influence of activators and inhibitors on debranching enzyme activity; type: biochemical; conditions: for Residual activity: Concentration 5 mM
[2] = target: T1, amylase derived from the Sulfolobus solfataricus strain KM1 (Saccharolobus solfataricus, UniProt Q55088); experiment: biochemical; type: biochemical; conditions: for Activating or inhibitory effect: added with the substrate
T1 construct: endogenous in cells; host or cells: Sulfolobus solfataricus strain KM1 cells
T1 sequence (Q55088 1-559): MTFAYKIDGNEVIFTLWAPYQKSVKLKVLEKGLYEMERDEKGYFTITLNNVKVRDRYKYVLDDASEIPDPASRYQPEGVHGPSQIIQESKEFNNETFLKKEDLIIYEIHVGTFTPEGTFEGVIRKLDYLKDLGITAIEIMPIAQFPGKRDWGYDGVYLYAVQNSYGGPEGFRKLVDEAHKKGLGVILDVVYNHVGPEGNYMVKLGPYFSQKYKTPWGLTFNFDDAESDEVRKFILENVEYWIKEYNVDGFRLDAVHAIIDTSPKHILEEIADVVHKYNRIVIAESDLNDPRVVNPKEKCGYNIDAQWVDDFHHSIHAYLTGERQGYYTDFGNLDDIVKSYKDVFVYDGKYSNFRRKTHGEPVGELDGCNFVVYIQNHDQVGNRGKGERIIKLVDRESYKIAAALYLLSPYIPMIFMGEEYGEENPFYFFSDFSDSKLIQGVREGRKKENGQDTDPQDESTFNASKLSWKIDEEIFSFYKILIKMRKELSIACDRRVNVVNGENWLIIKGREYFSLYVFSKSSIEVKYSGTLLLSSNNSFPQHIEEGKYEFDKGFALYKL

[3] = test system: transferase derived from the Sulfolobus solfataricus strain KM1; experiment: Influence of activators and inhibitors on glucosyltrehalose-producing activity; type: biochemical; conditions: for Activating or inhibitory effect: added with the substrate
[4] = target: T1, amylase derived from the Sulfolobus solfataricus strain KM1; experiment: Substrate specificity of the purified amylase (hydrolyzing properties, TSK-gel Amide-80 HPLC); type: biochemical; conditions: for Liberated oligosaccharide / Production rate of mono- and disaccharides: 25.0 Units/ml enzyme, 10 mM substrate (amylopectin and soluble starch 2.8%); for Production rate of mono- and disaccharides: 1 Unit = 1 μmol per hour
Protocol: The hydrolyzing properties were analyzed by allowing 25.0 Units/ml (in terms of the enzymatic activity when maltotriosyltrehalose is used as the substrate) of the present purified enzyme to act on the various 10 mM substrates (except amylopectin and soluble starch were used as 2.8% solutions) listed in Table 16 below, and the hydrolyzed products were also analyzed.
Incidentally, each enzymatic activity in Table 16 is expressed with such a unit as 1 Unit equals the activity of liberating 1 μmol of each of the monosaccharide and disaccharide per hour.

[5] = target: T2, swine pancreatic α-amylase (Sus scrofa, UniProt P00690); experiment: Hydrolysis of oligosaccharides by pancreatic α-amylase (comparative); type: biochemical; conditions: 1 Unit/ml α-amylase, 10 mM substrate, pH 6.9, 20° C.; for Production rate of di- and trisaccharides: 1 Unit = 1 umol per hour
T2 construct: purchased Sigma Co. A-6255
T2 sequence (P00690 16-511): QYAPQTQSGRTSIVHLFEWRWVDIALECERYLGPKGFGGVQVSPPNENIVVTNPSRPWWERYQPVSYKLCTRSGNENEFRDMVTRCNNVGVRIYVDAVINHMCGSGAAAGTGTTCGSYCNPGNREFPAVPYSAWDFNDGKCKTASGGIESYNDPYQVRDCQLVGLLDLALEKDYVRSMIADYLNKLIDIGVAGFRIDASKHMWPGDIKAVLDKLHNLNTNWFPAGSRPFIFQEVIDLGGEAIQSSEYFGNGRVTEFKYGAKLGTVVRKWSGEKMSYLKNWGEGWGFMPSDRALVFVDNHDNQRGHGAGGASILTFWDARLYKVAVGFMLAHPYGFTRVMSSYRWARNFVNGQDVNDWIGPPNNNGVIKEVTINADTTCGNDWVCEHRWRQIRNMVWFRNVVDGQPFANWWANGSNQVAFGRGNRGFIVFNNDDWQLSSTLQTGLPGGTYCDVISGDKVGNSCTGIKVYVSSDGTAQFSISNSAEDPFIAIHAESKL
Protocol: Swine pancreatic α-amylase is known to hydrolyze maltooligosaccharide from the reducing end by two or three sugar units [“Denpun.Kanren Toushitsu Kouso Jikken-hou” (“Experimental methods in enzymes for starch and relating saccharides”), p 135, written by Michinori Nakamura and Keiji Kainuma, published by Gakkai-Shuppan-Sentah]. Upon this, a swine pancreatic α-amylase (manufactured by Sigma Co., A-6255) was analyzed the hydrolyzing properties and the hydrolysates as a comparative example for the novel amylase of the present invention. […] The activity of producing disaccharide and trisaccharide was employed as the index of the enzymatic activity, and the analysis was performed by the TSK-gel Amide-80 HPLC analyzing method described in Example II-1.
Incidentally, the enzymatic activity values in Table 17 were expressed with such a unit as 1 Unit equals the activity of liberating 1 umol of each oligosaccharide per hour.

[6] = target: T3, recombinant novel amylase (Saccharolobus solfataricus, UniProt Q55088); experiment: Substrate specificity of the recombinant novel amylase (crude enzyme solution); conditions: for Liberated oligosaccharide / Production rate of mono- and disaccharides: 35.2 Units/ml crude enzyme solution, 10 mM substrate (amylopectin and soluble starch 3.0%); for Production rate of mono- and disaccharides: 1 Unit = 1 μmol per hour
T3 sequence (Q55088 1-559): T1 sequence (Q55088 1-559)

[7] = Concentration 5 mM, read-out: Residual activity

Row | SMILES | Residual activity [1] | Residual activity ([3]; Concentration 5 mM) | Residual activity ([2]; Concentration 5 mM) | Liberated oligosaccharide [4] | Production rate of mono- and disaccharides [4] | further results
1 | O[C@H](CS)[C@H](O)CS (racemic) [Dithiothreitol] | 106.0% | 84.5% |  |  |  | remaining activity at 5000 µM [2, 7]: 116%
2 | OCCS [2-Mercaptoethanol] | 104.1% | 100.3% | 141.7% |  |  | 
3 | O=[N+]([O-])[O-].[Ag+] [AgNO3] |  | 121.0% | 105.7% |  |  | 
4 | [Ca+2].[Cl-].[Cl-] [CaCl2] | 105.7% | 93.6% | 97.1% |  |  | Activating or inhibitory effect ([1]; added with the substrate): would not be activated; Activating or inhibitory effect [2]: would not be activated; Activating or inhibitory effect [3]: would not be activated
5 | [Cl-].[Cl-].[Co+2] [CoCl2] | 87.2% | 88.5% | 97.1% |  |  | 
6 | O=C(O)CN(CCN(CC(=O)O)CC(=O)O)CC(=O)O [EDTA] |  |  |  |  |  | Residual activity [2]: 106.3%; Residual activity [3]: 96.8%
7 | [Cl][Fe]([Cl])[Cl] [FeCl3] | 39.0% | 90.0% | 38.0% |  |  | 
8 | O=S(=O)([O-])[O-].[Fe+2] [FeSO4] | 74.1% | 108.3% | 73.5% |  |  | 
9 | OCC1OC(OC2OC(CO)C(OC3OC(CO)C(O)C(O)C3O)C(O)C2O)C(O)C(O)C1O [Glucosyltrehalose, α-D-maltosyl α-D-glucopyranoside] |  |  |  | Glucose + Trehalose | 0.04 units/ml | Liberated oligosaccharide [5]: not decomposed; Production rate of di- and trisaccharides [5]: 0 units/ml; Liberated oligosaccharide [6]: Glucose + Trehalose; Production rate of mono- and disaccharides [6]: 0.01 units/ml
10 | OC[C@H]1O[C@H](OC[C@H]2OC(O)[C@H](O)[C@@H](O)[C@@H]2O)[C@H](O)[C@@H](O)[C@@H]1O (stereo partly drawn) [Isomaltose] |  |  |  | not decomposed | 0 units/ml | Action of the enzyme on the substrate [4]: did not act; Action of the enzyme on the substrate [6]: did not act; Liberated oligosaccharide [6]: not decomposed; Production rate of mono- and disaccharides [6]: 0 units/ml
11 | OC[C@H]1O[C@H](O[C@H]2O[C@H](CO)[C@@H](O[C@H]3O[C@H](CO)[C@@H](O[C@H]4O[C@H](CO)[C@@H](O[C@H]5O[C@H](CO)[C@@H](O[C@H]6O[C@H](CO)[C@@H](O[C@H]7O[C@H](CO)[C@@H](O)[C@H](O)[C@H]7O)[C@H](O)[C@H]6O)[C@H](O)[C@H]5O)[C@H](O)[C@H]4O)[C@H](O)[C@H]3O)[C@H](O)[C@H]2O)[C@H](O)[C@@H](O)[C@@H]1O [Maltopentaosyltrehalose] |  |  |  | G5 + Trehalose | 25.5 units/ml | Liberated oligosaccharide [5]: G3 + Maltosyltrehalose; Production rate of di- and trisaccharides [5]: 4.36 units/ml
12 | OCC1OC(OC2OC(CO)C(OC3OC(CO)C(OC4OC(CO)C(O)C(O)C4O)C(O)C3O)C(O)C2O)C(O)C(O)C1O [Maltosyltrehalose, α-D-maltotriosyl α-D-glucopyranoside] |  |  |  | G2 + Trehalose | 3.93 units/ml | Liberated oligosaccharide [5]: not decomposed; Production rate of di- and trisaccharides [5]: 0 units/ml; Liberated oligosaccharide [6]: G2 + Trehalose; Production rate of mono- and disaccharides [6]: 4.52 units/ml
13 | OC[C@H]1O[C@H](O[C@H]2O[C@H](CO)[C@@H](O[C@H]3O[C@H](CO)[C@@H](O[C@H]4O[C@H](CO)[C@@H](O[C@H]5O[C@H](CO)[C@@H](O[C@H]6O[C@H](CO)[C@@H](O)[C@H](O)[C@H]6O)[C@H](O)[C@H]5O)[C@H](O)[C@H]4O)[C@H](O)[C@H]3O)[C@H](O)[C@H]2O)[C@H](O)[C@@H](O)[C@@H]1O [Maltotetraosyltrehalose] |  |  |  | G4 + Trehalose | 27.3 units/ml | Liberated oligosaccharide [5]: G3 + Glucosyltrehalose; Production rate of di- and trisaccharides [5]: 2.57 units/ml
14 | OCC1OC(OC2OC(CO)C(OC3OC(CO)C(OC4OC(CO)C(OC5OC(CO)C(O)C(O)C5O)C(O)C4O)C(O)C3O)C(O)C2O)C(O)C(O)C1O [Maltotriosyltrehalose, α-D-maltotetraosyl α-D-glucopyranoside] |  |  |  | G3 + Trehalose | 25.0 units/ml | Liberated oligosaccharide [5]: G2 + Glucosyltrehalose; Production rate of di- and trisaccharides [5]: 0.03 units/ml; Liberated oligosaccharide [6]: G3 + Trehalose; Production rate of mono- and disaccharides [6]: 35.21 units/ml
15 | [Cl-].[Cl-].[Mg+2] [MgCl2] | 82.9% | 111.3% | 93.5% |  |  | 
16 | [Cl][Mn][Cl] [MnCl2] | 91.2% | 74.2% | 101.8% |  |  | 
17 | CCCCCCCCCCCCOS(=O)(=O)[O-].[Na+] [SDS, sodium dodecyl sulfate] |  | 0.0% |  |  |  | remaining activity at 5000 µM [2, 7]: 0%; Activating or inhibitory effect [2]: inhibitory effects; Activating or inhibitory effect [3]: inhibitory effects
18 | OC[C@H]1O[C@H](O[C@H]2O[C@H](CO)[C@@H](O)[C@H](O)[C@H]2O)[C@H](O)[C@@H](O)[C@@H]1O [α,α-Trehalose, α,α-trehalose] |  |  |  | not decomposed | 0 units/ml | remaining activity at 500 µM ([2]; Concentration 0.5 mM, read-out: Residual activity): 98.2%; Action of the enzyme on the substrate [4]: did not act; Residual activity ([3]; Concentration 0.5 mM): 107.8%; Action of the enzyme on the substrate [6]: did not act; Liberated oligosaccharide [6]: not decomposed; Production rate of mono- and disaccharides [6]: 0 units/ml
